This data set concerns the target APP. Nature of the data set: mouse, dose not given. The settings on record: ASO.

HELM strings list units from the 5' end as sugar, base in round brackets, then linkage (d deoxyribose, r ribose, m 2'-O-methyl, p phosphodiester). Strings are as the collection lists them; they lack the last nucleoside at the 3' end of the tested compound. [moe] = 2'-O-(2-methoxyethyl) (MOE); [sp] = phosphorothioate linkage; [m5C] = 5-methylcytosine

“RNA1{[moe](A)[sp].[moe](A)p.[moe](A)p.[moe]([m5C])p.[moe](T)[sp].d([m5C])[sp].d(T)[sp].d(A)[sp].d([m5C])[sp].d([m5C])[sp].d([m5C])[sp].d([m5C])[sp].d(T)[sp].d([m5C])[sp].d(G)[sp].[moe](G)p.[moe](A)p.[moe](A)[sp].[moe]([m5C])}$$$$ (last 3' nucleoside missing)”: the 3 h FOB score came out at 1 score 0-7.

Turning to “RNA1{[moe](A)[sp].[moe](A)p.[moe](G)p.[moe](G)p.[moe](G)[sp].d([m5C])[sp].d(A)[sp].d(T)[sp].d([m5C])[sp].d(A)[sp].d([m5C])[sp].d(T)[sp].d(T)[sp].d(A)[sp].d([m5C])[sp].[moe](A)p.[moe](A)p.[moe](A)[sp].[moe]([m5C])}$$$$ (last 3' nucleoside missing)”, the 3 h FOB score amounted to 0 score 0-7.

Turning to “RNA1{[moe](A)[sp].[moe](A)p.[moe](G)p.[moe](G)p.[moe]([m5C])[sp].d(A)[sp].d(T)[sp].d(G)[sp].d([m5C])[sp].d(A)[sp].d(T)[sp].d(T)[sp].d(T)[sp].d(T)[sp].d(T)[sp].[moe](A)p.[moe](G)p.[moe](G)[sp].[moe](G)}$$$$ (last 3' nucleoside missing)”, the 3 h FOB score was 1.67 score 0-7.

Consider “RNA1{[moe](A)[sp].[moe](A)p.[moe](G)p.[moe]([m5C])p.[moe](T)[sp].d(T)[sp].d(A)[sp].d([m5C])[sp].d(A)[sp].d(T)[sp].d([m5C])[sp].d(A)[sp].d(T)[sp].d(T)[sp].d(T)[sp].[moe](T)p.[moe]([m5C])p.[moe](T)[sp].[moe](T)}$$$$ (last 3' nucleoside missing)”, for which the 3 h FOB score was 1.33 score 0-7.

Regarding “RNA1{[moe](A)[sp].[moe](A)p.[moe]([m5C])p.[moe](T)p.[moe]([m5C])[sp].d(G)[sp].d(A)[sp].d(A)[sp].d([m5C])[sp].d([m5C])[sp].d(A)[sp].d([m5C])[sp].d([m5C])[sp].d(T)[sp].d([m5C])[sp].[moe](T)p.[moe](T)p.[moe]([m5C])[sp].[moe]([m5C])}$$$$ (last 3' nucleoside missing)”, the 3 h FOB score turned out to be 0 score 0-7.

In turn, “RNA1{[moe](A)[sp].[moe](G)p.[moe](A)p.[moe](T)p.[moe](A)[sp].d([m5C])[sp].d(T)[sp].d(T)[sp].d(G)[sp].d(T)[sp].d([m5C])[sp].d(A)[sp].d(A)[sp].d([m5C])[sp].d(G)[sp].[moe](G)p.[moe]([m5C])p.[moe](A)[sp].[moe](T)}$$$$ (last 3' nucleoside missing)” displayed a 3 h FOB score of 2.33 score 0-7.

In turn, “RNA1{[moe](A)[sp].[moe](G)p.[moe](G)p.[moe](A)p.[moe](A)[sp].d([m5C])[sp].d(T)[sp].d([m5C])[sp].d(G)[sp].d(A)[sp].d(A)[sp].d([m5C])[sp].d([m5C])[sp].d(A)[sp].d([m5C])[sp].[moe]([m5C])p.[moe](T)p.[moe]([m5C])[sp].[moe](T)}$$$$ (last 3' nucleoside missing)” displayed a 3 h FOB score of 1 score 0-7.

“RNA1{[moe](A)[sp].[moe](G)p.[moe](G)p.[moe](A)p.[moe]([m5C])[sp].d(A)[sp].d(T)[sp].d(T)[sp].d([m5C])[sp].d(A)[sp].d(T)[sp].d(T)[sp].d(T)[sp].d(T)[sp].d(T)[sp].[moe](G)p.[moe](A)p.[moe]([m5C])[sp].[moe]([m5C])}$$$$ (last 3' nucleoside missing)”: the 3 h FOB score was 1 score 0-7.

The substance “RNA1{[moe](A)[sp].[moe](G)p.[moe](G)p.[moe](T)p.[moe]([m5C])[sp].d(T)[sp].d([m5C])[sp].d(T)[sp].d(A)[sp].d(T)[sp].d(A)[sp].d(T)[sp].d(T)[sp].d(T)[sp].d(T)[sp].[moe](G)p.[moe](G)p.[moe](T)[sp].[moe]([m5C])}$$$$ (last 3' nucleoside missing)” displayed a 3 h FOB score of 0.33 score 0-7.

“RNA1{[moe](A)[sp].[moe](G)p.[moe](T)p.[moe](A)p.[moe]([m5C])[sp].d(A)[sp].d(T)[sp].d(A)[sp].d(T)[sp].d(T)[sp].d([m5C])[sp].d(A)[sp].d(T)[sp].d(T)[sp].d([m5C])[sp].[moe](A)p.[moe](A)p.[moe](T)[sp].[moe]([m5C])}$$$$ (last 3' nucleoside missing)” returned a 3 h FOB score of 0 score 0-7.

These data come from the OligoGym collection.
